Test results as given in patent publication US6673555B1, “Methods of using SCAP antagonists” (SmithKline Beecham Corporation, priority 1999, dated 2004).

Test system: human LDL-receptor promoter
Assay: LDL-receptor promoter luciferase reporter assay in transfected HepG2 cells
Type: cell-based
Description: The human LDL-receptor promoter named p-588 corresponding to nucleotide −588 to +91 relative to the major transcription site was cloned by PCR from human genomic DNA (Clonetech) using SEQ ID NO: 3 […] and SEQ ID NO: 4 […] primers. and inserted into pGL3-basic vector (Promega) at Hind-III and Nco-I sites. The sequencing was identical to published promoter (Genbank L29401). Shorter promoters were obtained by PCR sub-cloning using Kpn-I and Nar-I sites. The primer SEQ ID NO: 5 […] corresponding to luciferase coding sequence was used as reverse primer for all constructs. The following primers were used to produce respectively p-149, p-118, p-70, p-53 and p-31 promoters: SEQ ID NO: 6 […], SEQ ID NO: 7 […], SEQ ID NO: 8 […], SEQ ID NO: 9 […] and SEQ ID NO: 10 […]. A vector containing the 38 bp of the minimal promoter of adenovirus Major Late Promoter (Ham. J. et al., EMBO, 10: 2931-2940 (1991)) was produced using Bgl-II and Hind-III site in pGL3-basic. Four repeats of the SRE sequence present on the human LDL-receptor promoter were introduced in p-MLP vector using Bgl-II site, SEQ ID NO: 11 […] and complementary oligo. HepG2 cells seeded the previous day at 3 10^5 cells per well of 24 well plate were transfected with 1 μg of LDL-promoter containing vector together with p-RL-TK control vector (Promega) using Fugene 6 (Boehringer). HepG2 cells were incubated for 28 hours in the presence of SCAP antagonist and/or 25OH-cholesterol. Firefly luciferase and Renila activity were measured using Dual Luciferase Assay Kit (Promega) and Lumistar (BMG). The ratio of Firefly luciferase to Renila were used to calculate mean and S.D. of tetraplicates.
A vector containing the human LDL-receptor promoter coupled to Firefly luciferase reporter was made. A mixture of the LDL-receptor vector and control pRL-TK vector was used to transfect HepG2 cells. Cells were incubated with 25OH-cholesterol (0.2 or 1 μM) alone or in the presence (black bars) or absence (gray bars) of Example 1 (1 μM) for 28 hours before measurement of luciferase and renila activity. The ratio of luciferase activity versus renila activity was calculated and the mean and SD of triplicates were expressed as percent of control.
Shortening the LDL-receptor promoter in the same reporter vector modifies the relative luciferase activity (FIG. 3A).

## CCOc1cc(CC)ccc1C1CCN(CCCCNC(=O)c2ccc(NC(=O)c3ccc(Cl)cc3)cc2)CC1 [Example 1, 4-(4-Chloro-benzoylamino)-N-{4-[4-(2-ethoxy-4-ethyl-phenyl)-piperidin-1-yl]-butyl}-benzamide]
1 μM with 25OH-cholesterol 0.2 or 1 μM, 28 hours, HepG2, FIG. 2
  LDL-receptor promoter activity on co-treatment with 25OH-cholesterol: can at least partially antagonise the effects of 25OH-cholesterol on SCAP
1 μM, 28 hours, HepG2, FIG. 2
  LDL-receptor promoter activity (luciferase/renila ratio): acts as a transcriptional activators
1 μM, HepG2, FIG. 3C
  response of minimal adenovirus Major Late promoter vector (p-MLP): fails to respond
  response of p-MLP vector with 4 copies of SRE: sufficient to confer the responsiveness
1 μM, HepG2, p-149 to p-31 constructs, FIG. 3B left
  reporter expression from shortened LDL-receptor promoter constructs: promote expression only for vectors possessing the SRE sequence
